Results as given in PubChem BioAssay (NCI).
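Values below derive from 48-hour exposures of cells grown in 96-well plates, with endpoints linearly interpolated between the two concentrations bracketing the appropriate inhibition level. GI50 = concentration required for 50% inhibition of growth. TGI is the concentration that stops growth completely.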

Legend:
Assay in all cases: NCI tumour cell line growth inhibition, 48 h
XF 498 CNS = test system: XF 498 CNS
HOP-18 NSCLC = test system: HOP-18 NSCLC
KM20L2 colon = test system: KM20L2 colon
DLD-1 colon = test system: DLD-1 colon
DMS 114 small cell lung = test system: DMS 114 small cell lung
DMS 273 small cell lung = test system: DMS 273 small cell lung
SNB-78 CNS = test system: SNB-78 CNS
MDA-N = test system: MDA-N
RXF-631 renal = test system: RXF-631 renal

Compound: Cc1ccccc1NC(=O)C(=O)CC(=O)C1CCOC1=O (stereo not drawn)
- TGI (XF 498 CNS): > 100 µM
- TGI (HOP-18 NSCLC): > 100 µM
- TGI (KM20L2 colon): > 100 µM
- TGI (DLD-1 colon): > 100 µM
- TGI (DMS 114 small cell lung): > 100 µM
- TGI (DMS 273 small cell lung): > 100 µM
- TGI (SNB-78 CNS): > 100 µM

Compound: COC(=O)C1=CO[C@@H](OC2OC(CO)C(O)C(O)C2O)[C@@H]2[C@H](C)[C@@H](O)[C@@H](O)[C@]12O (stereo partly drawn)
- TGI (MDA-N): > 100 µM

Compound: CCOC(=O)C1=C(C)N(NC(=O)OC)C2(N)N(NC(=O)OC)C(C)=C(C(=O)OCC)C12C#N (stereo not drawn)
- TGI (XF 498 CNS): > 100 µM
- TGI (KM20L2 colon): > 100 µM
- TGI (DLD-1 colon): > 100 µM
- TGI (DMS 114 small cell lung): > 100 µM
- TGI (DMS 273 small cell lung): > 100 µM

Compound: CCOC(=O)C(O)Cc1cnc2ccccc2n1 (stereo not drawn)
- TGI (MDA-N): > 100 µM

Compound: Cc1cc(Cl)cc2c1NC(=O)C2(O)CC(=O)c1ccc(F)cc1 (stereo not drawn)
- TGI (XF 498 CNS): 66.4 µM
- TGI (HOP-18 NSCLC): 90.7 µM
- TGI (KM20L2 colon): > 100 µM
- TGI (DLD-1 colon): > 100 µM
- TGI (DMS 273 small cell lung): > 100 µM
- TGI (SNB-78 CNS): > 100 µM

Compound: Cc1cccc(Cl)c1NC(=O)c1cccc([N+](=O)[O-])c1O
- TGI (XF 498 CNS): > 100 µM
- TGI (HOP-18 NSCLC): > 100 µM
- TGI (KM20L2 colon): > 100 µM
- TGI (RXF-631 renal): > 100 µM
- TGI (DLD-1 colon): > 100 µM
- TGI (DMS 114 small cell lung): 83.1 µM
- TGI (DMS 273 small cell lung): > 100 µM
- TGI (SNB-78 CNS): > 100 µM

Compound: OCCSCC/C(=N\N=C(/CCSCCO)c1ccccc1)c1ccccc1
- TGI (XF 498 CNS): > 100 µM
- TGI (HOP-18 NSCLC): > 100 µM
- TGI (KM20L2 colon): > 100 µM
- TGI (RXF-631 renal): > 100 µM
- TGI (DLD-1 colon): > 100 µM
- TGI (DMS 114 small cell lung): > 100 µM
- TGI (SNB-78 CNS): > 100 µM

Compound: O=C1c2ccccc2C(=O)c2sc(Nc3ccc(Cl)cc3)nc21
- TGI (XF 498 CNS): 4.7 µM
- TGI (HOP-18 NSCLC): 7.26 µM
- TGI (KM20L2 colon): 33.9 µM
- TGI (DLD-1 colon): 3.41 µM
- TGI (DMS 114 small cell lung): 3.63 µM
- TGI (DMS 273 small cell lung): 3.74 µM
- TGI (SNB-78 CNS): 8.03 µM

Compound: CCOC(=O)N1CCc2cc(OC)c(OC)cc2/C1=C/c1ccc(OC)c(OC)c1
- TGI (XF 498 CNS): 98 µM
- TGI (HOP-18 NSCLC): > 100 µM
- TGI (KM20L2 colon): > 100 µM
- TGI (DLD-1 colon): > 100 µM
- TGI (DMS 114 small cell lung): > 100 µM
- TGI (DMS 273 small cell lung): > 100 µM
- TGI (SNB-78 CNS): > 100 µM

Compound: O=C([CH-]C(=O)c1ccccc1)c1ccccc1.[CH3-].[CH3-].[CH3-].[Sn+4]
- GI50 (HOP-18 NSCLC): 39 µM
- TGI (HOP-18 NSCLC): > 100 µM
- GI50 (KM20L2 colon): 16.3 µM
- TGI (KM20L2 colon): 58 µM

Compound: Cc1[nH]c(=O)nc(N/N=C/c2ccc(Cl)cc2)c1C(=O)Nc1ccc(Cl)cc1
- TGI (XF 498 CNS): 25.2 µM
- TGI (HOP-18 NSCLC): 7.3 µM
- TGI (KM20L2 colon): > 100 µM
- TGI (DLD-1 colon): > 100 µM
- TGI (DMS 114 small cell lung): 56.1 µM
- TGI (DMS 273 small cell lung): > 100 µM
- TGI (MDA-N): > 100 µM
- TGI (SNB-78 CNS): > 100 µM

Compound: Nc1cc(N)cc(Cc2ccccc2)c1
- TGI (MDA-N): > 100 µM

Compound: O=C1[C@@H]2C(c3ccncc3)=NO[C@@H]2C(=O)N1c1ccc(Cc2ccc(N3C(=O)[C@H]4C(c5ccncc5)=NO[C@H]4C3=O)cc2)cc1
- TGI (HOP-18 NSCLC): > 100 µM
- TGI (KM20L2 colon): > 100 µM
- TGI (RXF-631 renal): > 100 µM
- TGI (DLD-1 colon): > 100 µM
- TGI (DMS 114 small cell lung): > 100 µM
- TGI (DMS 273 small cell lung): > 100 µM
- TGI (SNB-78 CNS): > 100 µM

Compound: C/C(CC(=O)Nc1ccccc1)=N\NC(N)=S
- TGI (XF 498 CNS): > 100 µM
- TGI (KM20L2 colon): > 100 µM
- TGI (DLD-1 colon): > 100 µM
- TGI (DMS 114 small cell lung): > 100 µM
- TGI (DMS 273 small cell lung): > 100 µM
- TGI (SNB-78 CNS): > 100 µM

Compound: CC(C)C[C@H]1C(=O)N2CCC[C@H]2[C@]2(O)O[C@](NC(=O)[C@@H]3C=C4c5cccc6[nH]c(Br)c(c56)C[C@H]4N(C)C3)(C(C)C)C(=O)N12
- TGI (MDA-N): > 100 µM

Compound: Cc1cccc2c(N=Nc3ccccc3[N+](=O)[O-])c(O)[nH]c12
- TGI (MDA-N): > 100 µM

Compound: CN(N=O)C(=O)Nc1ccc(C(=O)O)cc1
- TGI (MDA-N): > 100 µM

Compound: CCCCCCCC(=O)NS(=O)(=O)c1ccccc1
- TGI (MDA-N): > 100 µM

Compound: COC(=O)[C@@H]1[C@H](O)[C@H](C)[C@H](O)[C@H](C)/C=C\C=C(C)C(=O)Nc2c(C)c(OC(C)=O)c3c(c2O)C(=O)C(C)=C2OCOC(=C23)C(C)=C[C@@](C)(O)[C@H](O)[C@@H](C)[C@H]1OC(C)=O
- TGI (MDA-N): 41.9 µM

Compound: CC1(C)Cc2nnsc2C2=C1C(=O)CCS2
- TGI (HOP-18 NSCLC): > 100 µM
- TGI (KM20L2 colon): > 100 µM
- TGI (DLD-1 colon): > 100 µM
- TGI (DMS 114 small cell lung): > 100 µM
- TGI (DMS 273 small cell lung): > 100 µM

Compound: Cc1cccc(C)c1NC(=O)CCCC(=O)C(C#N)c1ccc(Cl)cc1 (stereo not drawn)
- TGI (HOP-18 NSCLC): > 100 µM
- TGI (KM20L2 colon): > 100 µM
- TGI (DLD-1 colon): > 100 µM
- TGI (DMS 114 small cell lung): > 100 µM
- TGI (DMS 273 small cell lung): > 100 µM
- TGI (SNB-78 CNS): > 100 µM

Compound: NC1=NCC(c2ccccn2)C1c1ccc(F)cc1 (stereo not drawn)
- TGI (XF 498 CNS): > 100 µM
- TGI (HOP-18 NSCLC): > 100 µM
- TGI (KM20L2 colon): > 100 µM
- TGI (RXF-631 renal): > 100 µM
- TGI (DLD-1 colon): > 100 µM
- TGI (DMS 114 small cell lung): > 100 µM
- TGI (SNB-78 CNS): > 100 µM
